Source: patent US5843916A, “Cyclic amp analogues, individually and in pairs, to inhibit neoplastic cell growth” (priority 1994, dated 1998)
Like-named read-outs stand apart in the source and are kept apart here.

Assays:
[1] = system: HL-60 human leukemia cells; experiment: Growth inhibition of HL-60 leukemia cells (Example 3, Table 16); type: cell-based; conditions: for IC50: Homo sapiens
How it was run: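 HL-60 cells were grown in suspension in RPMI 1640 with 10% heat-inactivated FBS, starting at 1 × 10^5 cells/dish. Cells were counted on a Coulter Counter after 3 or 6 days of exposure. IC50 values were read from dose-response data and averaged over two or more separate experiments.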

[2] = system: LS-174T human colon carcinoma cells; experiment: Additive growth inhibition with 8-Cl-cAMP (Table 19); type: cell-based; conditions: Homo sapiens, LS174T, 96 h; 1 μM; 4 days
Description: The medium was changed every 48 hours.
At desired times, cell counts were performed in duplicate on a Coulter Counter after harvesting cells with gentle trypsinization.
The analogues were added at 24

[3] = biological target: T1, Protein kinase type I (cAKI) (Oryctolagus cuniculus, UniProt G1TDN4); experiment: Protein kinase activation (Table 15); type: biochemical, rabbit (skeletal muscle); conditions: half-maximum activation; U. M.: unmeasurable
T1 construct: prepared from rabbit skeletal muscle and bovine heart; from tissue; host or cells: rabbit skeletal muscle
Description: ATP to Kemptide as described by Ogreid et al., Eur. J. Biochem. 150: 219-227 (1985).
Protein kinases types I (cAKI) and II (cAKII) were
prepared from rabbit skeletal muscle and bovine heart,
respectively, as described in D.o slashed.skeland et al. (J. Biol.
of the protein kinase in Ogreid et al. (Eur. J. Biochem.

MCF-7 = experiment: Cell cycle analysis by flow cytometry (Table 3); type: cell-based, human; conditions: 10 μM; 3 days
Description: DNA histograms were generated on FACS II by using the DNA intercalating dye propidium iodide as described by Braylan et al. in Cytometry 2: 337-343, 1982. The percentage of cells in each cycle phase was calculated by using a PDP-11/34 computer and software as described by Neckers et al., Mol. Cell. Biol. 6: 4244-4250, 1986.
Breast (MCF-7, MDA-MB-231) and colon (LS-174T) cancer cells in log
phase (untreated control) and 3 days after treatment with 8-C1-cAMP
(10 μM), N^6 -benzyl-cAMP (35 μM), and 8-Cl-adenosine (5
were analyzed for DNA content by flow cytometric analysis as described
below. Similar results were obtained with other breast and colon cancer

[4] = biological target: T2, RI, regulatory subunit of cAMP-dependent protein kinase type I (Oryctolagus cuniculus, UniProt G1TDN4); conditions: cited from earlier work
T2 construct: from tissue

[5] = system: cultured human fibroblasts; conditions: cited from earlier work

T2 sequence (G1TDN4 1-381): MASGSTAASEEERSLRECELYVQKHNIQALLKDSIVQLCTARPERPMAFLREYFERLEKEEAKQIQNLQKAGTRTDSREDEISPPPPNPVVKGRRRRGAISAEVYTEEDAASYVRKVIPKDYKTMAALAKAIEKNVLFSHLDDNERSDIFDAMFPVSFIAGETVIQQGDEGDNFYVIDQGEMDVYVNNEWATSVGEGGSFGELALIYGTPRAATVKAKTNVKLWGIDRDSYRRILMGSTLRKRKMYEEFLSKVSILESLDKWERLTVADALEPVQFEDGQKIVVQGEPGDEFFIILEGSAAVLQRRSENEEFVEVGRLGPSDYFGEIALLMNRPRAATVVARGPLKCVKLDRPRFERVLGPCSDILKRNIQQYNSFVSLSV
T1 sequence (G1TDN4 1-381): as above

Row | Compound | growth inhibitory potency ([1]; HL-60) | IC50 ([1]; HL-60, 72 h, read-out: Growth inhibition (IC50), Day 3) | IC50 ([1]; HL-60, 144 h, read-out: Growth inhibition (IC50), Day 6) | inhibition at 1 µM [2] | Activation Constant (Ka), cAKI [3] | % Cell Population in G1 (MCF-7) | % Cell Population in G2M (MCF-7) | % Cell Population in S (MCF-7) | cell cycle phase distribution (MCF-7) | relative affinity Ki (cAMP)/Ki (analogue), RI Site A ([4]; Site A (Site 2), literature) | relative affinity Ki (cAMP)/Ki (analogue), RI Site B ([4]; Site B (Site 1), literature) | site selectivity of binding to RI [4] | DNA synthesis ([5]; added during first eight hours after serum addition) | DNA synthesis ([5]; added more than eight hours after serum addition)
1 | Nc1ncnc2c1nc(Cl)n2[C@@H]1O[C@@H]2COP(=O)(O)O[C@H]2[C@H]1O [8-Cl-cAMP, 8-chloro-adenosine 3': 5'-monophosphate] | potent growth inhibitor of HL-60 cells | 5000 nM | 400 nM | 30% | 1.8 × 10^-8 | 53% | 25% | 22% | not appreciably different | 2.71 | 2.0 | binds to site 2 of the RI receptor |  | 
2 | CCCC(=O)Nc1ncnc2c1ncn2[C@@H]1O[C@@H]2COP(=O)(O)O[C@H]2[C@H]1OC(=O)CCC [DBcAMP, N^6, O^2' -dibutyryl-cAMP, reference compound] |  |  |  |  |  |  |  |  |  |  |  |  | not delayed | inhibitory
